Test results reported in ChEMBL document CHEMBL4622979, “Non-rigid Diarylmethyl Analogs of Baloxavir as Cap-Dependent Endonuclease Inhibitors of Influenza Viruses” (J Med Chem, 2020).

Legend:
[1] = MRTlast in CD1 mouse plasma assessed as baloxavir acid level at 15 mg/kg, po administered as single dose measured up to 24 hrs by LC-MS/MS analysis; format: ADME, organism-based; details: in vivo
[2] = MRTlast in CD1 mouse brain assessed as baloxavir acid level at 15 mg/kg, po administered as single dose measured up to 24 hrs by LC-MS/MS analysis; format: ADME, organism-based; details: in vivo
[3] = AUClast in CD1 mouse kidney assessed as baloxavir acid level at 15 mg/kg, po administered as single dose measured up to 24 hrs by LC-MS/MS analysis; format: ADME, organism-based; details: in vivo
[4] = Cmax in CD1 mouse brain assessed as baloxavir acid level at 15 mg/kg, po administered as single dose measured up to 24 hrs by LC-MS/MS analysis; format: ADME, organism-based; parameters: dose 15 mg/kg, route oral; details: in vivo
[5] = AUClast in CD1 mouse heart assessed as baloxavir acid level at 15 mg/kg, po administered as single dose measured up to 24 hrs by LC-MS/MS analysis; format: ADME, organism-based; details: in vivo
[6] = Tmax in CD1 mouse small intestine assessed as baloxavir acid level at 15 mg/kg, po administered as single dose measured up to 24 hrs by LC-MS/MS analysis; format: ADME, organism-based; details: in vivo
[7] = Half life in CD1 mouse brain assessed as baloxavir acid level at 15 mg/kg, po administered as single dose measured up to 24 hrs by LC-MS/MS analysis; format: ADME, organism-based; details: in vivo
[8] = AUCinfinity in CD1 mouse small intestine assessed as baloxavir acid level at 15 mg/kg, po administered as single dose measured up to 24 hrs by LC-MS/MS analysis; format: ADME, organism-based; parameters: dose 15 mg/kg, route oral, time infinity; details: in vivo
[9] = AUCinfinity in CD1 mouse kidney assessed as (12aR)-12-(Diphenylmethyl)-7-hydroxy-3,4,12,12a-tetrahydro-1H-[1,4]oxazino[3,4-c]pyrido[2,1-f ][1,2,4]triazine-6,8-dione level at 15 mg/kg, po administered as single dose measured up to 24 hrs by LC-MS/MS analysis; format: ADME, organism-based; parameters: dose 15 mg/kg, time infinity, route oral; details: in vivo
[10] = Cmax in CD1 mouse trachea assessed as (12aR)-12-(Diphenylmethyl)-7-hydroxy-3,4,12,12a-tetrahydro-1H-[1,4]oxazino[3,4-c]pyrido[2,1-f ][1,2,4]triazine-6,8-dione level at 15 mg/kg, po administered as single dose measured up to 24 hrs by LC-MS/MS analysis; format: ADME, organism-based; parameters: dose 15 mg/kg, route oral; details: in vivo
[11] = Tmax in CD1 mouse trachea assessed as (12aR)-12-(Diphenylmethyl)-7-hydroxy-3,4,12,12a-tetrahydro-1H-[1,4]oxazino[3,4-c]pyrido[2,1-f ][1,2,4]triazine-6,8-dione level at 15 mg/kg, po administered as single dose measured up to 24 hrs by LC-MS/MS analysis; format: ADME, organism-based; details: in vivo
[12] = Tmax in CD1 mouse brain assessed as (12aR)-12-(Diphenylmethyl)-7-hydroxy-3,4,12,12a-tetrahydro-1H-[1,4]oxazino[3,4-c]pyrido[2,1-f ][1,2,4]triazine-6,8-dione level at 15 mg/kg, po administered as single dose measured up to 24 hrs by LC-MS/MS analysis; format: ADME, organism-based; details: in vivo
[13] = Ratio of Cmax in CD1 mouse lung to plasma assessed as (12aR)-12-(Diphenylmethyl)-7-hydroxy-3,4,12,12a-tetrahydro-1H-[1,4]oxazino[3,4-c]pyrido[2,1-f ][1,2,4]triazine-6,8-dione level at 15 mg/kg, po administered as single dose by LC-MS/MS analysis; format: ADME, organism-based; details: other tissue
[14] = Tmax in CD1 mouse heart assessed as (12aR)-12-(Diphenylmethyl)-7-hydroxy-3,4,12,12a-tetrahydro-1H-[1,4]oxazino[3,4-c]pyrido[2,1-f ][1,2,4]triazine-6,8-dione level at 15 mg/kg, po administered as single dose measured up to 24 hrs by LC-MS/MS analysis; format: ADME, organism-based; details: in vivo
[15] = AUClast in CD1 mouse muscle assessed as (12aR)-12-(Diphenylmethyl)-7-hydroxy-3,4,12,12a-tetrahydro-1H-[1,4]oxazino[3,4-c]pyrido[2,1-f ][1,2,4]triazine-6,8-dione level at 15 mg/kg, po administered as single dose measured up to 24 hrs by LC-MS/MS analysis; format: ADME, organism-based, Muscle tissue; details: in vivo
[16] = AUCinfinity in CD1 mouse small intestine assessed as (12aR)-12-(Diphenylmethyl)-7-hydroxy-3,4,12,12a-tetrahydro-1H-[1,4]oxazino[3,4-c]pyrido[2,1-f ][1,2,4]triazine-6,8-dione level at 15 mg/kg, po administered as single dose measured up to 24 hrs by LC-MS/MS analysis; format: ADME, organism-based; parameters: dose 15 mg/kg, route oral, time infinity; details: in vivo
[17] = Half life in CD1 mouse lung assessed as (12aR)-12-(Diphenylmethyl)-7-hydroxy-3,4,12,12a-tetrahydro-1H-[1,4]oxazino[3,4-c]pyrido[2,1-f ][1,2,4]triazine-6,8-dione level at 15 mg/kg, po administered as single dose measured up to 24 hrs by LC-MS/MS analysis; format: ADME, organism-based; details: in vivo
[18] = AUClast in CD1 mouse small intestine assessed as (12aR)-12-(Diphenylmethyl)-7-hydroxy-3,4,12,12a-tetrahydro-1H-[1,4]oxazino[3,4-c]pyrido[2,1-f ][1,2,4]triazine-6,8-dione level at 15 mg/kg, po administered as single dose measured up to 24 hrs by LC-MS/MS analysis; format: ADME, organism-based; details: in vivo
[19] = Half life in CD1 mouse blood assessed as (12aR)-12-(Diphenylmethyl)-7-hydroxy-3,4,12,12a-tetrahydro-1H-[1,4]oxazino[3,4-c]pyrido[2,1-f ][1,2,4]triazine-6,8-dione level at 15 mg/kg, po administered as single dose measured up to 24 hrs by LC-MS/MS analysis; format: ADME, organism-based; details: in vivo
[20] = AUClast in CD1 mouse lung assessed as (12aR)-12-(Diphenylmethyl)-7-hydroxy-3,4,12,12a-tetrahydro-1H-[1,4]oxazino[3,4-c]pyrido[2,1-f ][1,2,4]triazine-6,8-dione level at 15 mg/kg, po administered as single dose measured up to 24 hrs by LC-MS/MS analysis; format: ADME, organism-based; details: in vivo
[21] = Elimination rate constant in CD1 mouse plasma assessed as (12aR)-12-(Diphenylmethyl)-7-hydroxy-3,4,12,12a-tetrahydro-1H-[1,4]oxazino[3,4-c]pyrido[2,1-f ][1,2,4]triazine-6,8-dione level at 15 mg/kg, po administered as single dose measured up to 24 hrs by LC-MS/MS analysis; format: ADME, organism-based; details: in vivo
[22] = Half life in CD1 mouse kidney assessed as (12aR)-12-(Diphenylmethyl)-7-hydroxy-3,4,12,12a-tetrahydro-1H-[1,4]oxazino[3,4-c]pyrido[2,1-f ][1,2,4]triazine-6,8-dione level at 15 mg/kg, po administered as single dose measured up to 24 hrs by LC-MS/MS analysis; format: ADME, organism-based; details: in vivo
[23] = Cmax in CD1 mouse liver assessed as (12aR)-12-(Diphenylmethyl)-7-hydroxy-3,4,12,12a-tetrahydro-1H-[1,4]oxazino[3,4-c]pyrido[2,1-f ][1,2,4]triazine-6,8-dione level at 15 mg/kg, po administered as single dose measured up to 24 hrs by LC-MS/MS analysis; format: ADME, organism-based; parameters: dose 15 mg/kg, route oral; details: in vivo

With `COC(=O)OCOc1c2n(ccc1=O)N([C@@H]1c3ccccc3SCc3c1ccc(F)c3F)[C@@H]1COCCN1C2=O` [BALOXAVIR MARBOXIL] the MRTlast [1] was 2.57 h, the MRTlast [2] was 8.42 h and the AUClast [3] was 21162 ng·h/g. For the same compound, the Cmax [4] was 21.9 ng/g, the AUClast [5] was 8959 ng·h/g and the Tmax [6] was 0.5 h. The t1/2 [7] was 11.3 h and the AUC [8] was 106028 ng·h/g.
Compound `COC(=O)OCOc1c2n(ccc1=O)N(C(c1ccccc1)c1ccccc1)[C@@H]1COCCN1C2=O` has an AUC [9] of 18087 ng·h/g, a Cmax [10] of 3431 ng/g and a Tmax [11] of 0.5 h. The Tmax [12] was 0.5 h, the Ratio [13] was 2.2 and the Tmax [14] was 0.5 h. For the same compound, the AUClast [15] was 7425 ng·h/g, the AUC [16] was 44252 ng·h/g and the t1/2 [17] was 1.57 h. The AUClast [18] was 43656 ng·h/g, the t1/2 [19] was 1.74 h and the AUClast [20] was 8320 ng·h/g. The Kel [21] was 0.44 h⁻¹, the t1/2 [22] was 2.57 h and the Cmax [23] was 12775 ng/g.
